Source: the NIST ThermoML archive (doi:10.1016/j.fluid.2011.04.017)
± gives the expanded uncertainty stated by the source.

Conditions: 101.33 kPa, Liquid, Vibrating tube method

## CCCCn1cc[n+](C)c1.F[P-](F)(F)(F)(F)F [1-butyl-3-methylimidazolium hexafluorophosphate]
298.1 K
  mass density: 1366.38 ± 1.7 kg/m3

## CCCCCCCCCn1cc[n+](C)c1.F[P-](F)(F)(F)(F)F [1-nonyl-3-methylimidazolium hexafluorophosphate]
293.15 K
  mass density: 1198.32 ± 0.2 kg/m3
298.15 K
  mass density: 1194.34 ± 0.19 kg/m3
